Data on 16 compounds can be found in patent publication US10947252B2, “Inhibitors of KEAP1-Nrf2 protein-protein interaction” (Janssen Pharmaceutica NV, priority 2018, dated 2021).

The target in test [1] is Kelch domain of human KEAP1 (321-624 aa) (Homo sapiens (Human), UniProt Q14145). Description: KEAP1 KELCH ThermoFluor binding assay.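 Also: Ligand-induced melting temperature shift of E. coli-expressed KEAP1 Kelch protein, Kd estimated from concentration-response curves of ΔTm.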 Particulars: KEAP Kelch […], 1,8-ANS, pH 7.0, average of results obtained, read-out: Tf Kd. (Differential scanning fluorimetry follows unfolding on heating by fluorescence.)
Chain of Kelch domain of human KEAP1 (321-624 aa) (Q14145 321-624): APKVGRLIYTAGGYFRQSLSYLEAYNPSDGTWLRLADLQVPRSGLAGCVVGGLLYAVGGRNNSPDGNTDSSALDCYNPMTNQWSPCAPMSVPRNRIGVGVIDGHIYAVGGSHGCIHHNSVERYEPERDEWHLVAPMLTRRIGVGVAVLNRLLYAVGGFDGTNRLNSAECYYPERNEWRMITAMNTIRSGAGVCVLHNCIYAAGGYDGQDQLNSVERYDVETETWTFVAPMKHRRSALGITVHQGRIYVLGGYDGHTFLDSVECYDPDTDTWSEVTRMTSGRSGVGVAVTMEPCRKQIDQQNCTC
Test [2] deals with Glo-Response ARE-luc2P HEK293 cell line. Briefly: ARE luciferase reporter cell-based assay.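 Also: luciferase signal tracks Nrf2 activation of the ARE once compounds disrupt KEAP1-Nrf2 binding, read with One-Glo reagent, DMSO serving as low control.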 To be noted: Homo sapiens, HEK293, 24 h, average of results obtained. In general terms: A reporter such as luciferase makes a cellular process visible.

Where a name gives a salt, the structure may show the parent alone. Where only a bound is given, the exact number is not on record here.

On to `Cc1ccc([C@H](CC(=O)O)c2ccn3c(C(F)(F)F)nnc3c2C)cc1CN1CC(C)(C)Oc2ccccc2S1(=O)=O` (single isomer, unassigned) [Example 284, 3-(3-((4,4-Dimethyl-1,1-dioxido-3,4-dihydro-2H-benzo[b][1,4,5]oxathiazepin-2-yl)methyl)-4-methylphenyl)-3-(8-methyl-3-(trifluoromethyl)-[1,2,4]triazolo[4,3-a]pyridin-7-yl)propanoic Acid], for which the equilibrium dissociation constant (Kd) (in general, a measure of binding affinity in units of concentration) in test [1] stood at 1.65 nM. In test [2], the EC50 (as a rule, the concentration needed to bring the measured effect to its halfway point) is 213 nM.

For `Cc1cc2cc([C@H](CC(=O)O)c3ccc(C)c(CN4C[C@@H]5CCCN5c5ncccc5S4(=O)=O)c3)n(C)c2nn1` (single isomer, unassigned) [Example 439, (*R)-3-(3,7-Dimethyl-7H-pyrrolo[2,3-c]pyridazin-6-yl)-3-(3-(((S)-5,5-dioxido-7a,8,9,10-tetrahydropyrido[2,3-f]pyrrolo[2,1-d][1,2,5]thiadiazepin-6(7H)-yl)methyl)-4-methylphenyl)propanoic Acid], the dissociation constant Kd in test [1] worked out at 1.26 nM. For the same compound, the EC50 in test [2] was found to be 2440 nM.

On to `Cc1cnc([C@@H](c2ccn3c(C(F)(F)F)nnc3c2C)C(C)(C)C(=O)O)cc1CN1CC2(CC2)Oc2nc(OCCN3CCCCC3)c(C)cc2S1(=O)=O` (single isomer, unassigned) [Example 592, (*S)-2,2-Dimethyl-3-(8-methyl-3-(trifluoromethyl)-[1,2,4]triazolo[4,3-a]pyridin-7-yl)-3-(5-methyl-4-((8′-methyl-1′,1′-dioxido-7′-(2-(piperidin-1-yl)ethoxy)spiro[cyclopropane-1,4′-pyrido[2,3-b][1,4,5]oxathiazepin]-2′(3′H)-yl)methyl)pyridin-2-yl)propanoic Acid], for which the Kd in test [1] was under 1 nM. This compound also gave an EC50 in test [2] of 17.6 nM.

For the compound `Cc1ccc([C@H](CC(=O)O)c2ccn3c(C(F)(F)F)nnc3c2C)cc1CN1CC2(CC2)Oc2ncc(C#N)cc2S1(=O)=O` (single isomer, unassigned) [Example 200, (*S)-3-(3-((8′-Cyano-1′,1′-dioxidospiro[cyclopropane-1,4′-pyrido[2,3-b][1,4,5]oxathiazepin]-2′(3′H)-yl)methyl)-4-methylphenyl)-3-(8-methyl-3-(trifluoromethyl)-[1,2,4]triazolo[4,3-a]pyridin-7-yl)propanoic Acid], in test [1], the dissociation constant Kd is under 1 nM. In test [2], this compound displayed an EC50 of 61 nM.

With `CC[C@@H]1CN(Cc2cc(C(CC(=O)O)c3cc(OC(F)F)c4c(c3)nnn4C)ccc2C)S(=O)(=O)c2cccnc2O1` (mixture of isomers) [Example 249, 3-(7-(Difluoromethoxy)-1-methyl-1H-benzo[d][1,2,3]triazol-5-yl)-3-(3-(((R)-4-ethyl-1,1-dioxido-3,4-dihydro-2H-pyrido[2,3-b][1,4,5]oxathiazepin-2-yl)methyl)-4-methylphenyl)propanoic Acid and its Trifluoroacetic Acid Salt], in test [1], the equilibrium dissociation constant (Kd) was under 1 nM. The concentration for a half-maximal effect (EC50) in test [2] was determined as 28.6 nM.

Turning to `Cc1ccc([C@H](c2ccn3c(C(F)(F)F)nnc3c2C)C(C)(C)C(=O)O)cc1CN1CC2(CCOCC2)Oc2nc(N[C@H](C)CCO)ccc2S1(=O)=O` (single isomer, unassigned) [Example 120, (*R)-3-(3-((7′-(((R)-4-Hydroxybutan-2-yl)amino)-1′,1′-dioxido-2,3,5,6-tetrahydrospiro[pyran-4,4′-pyrido[2,3-b][1,4,5]oxathiazepin]-2′(3′H)-yl)methyl)-4-methylphenyl)-2,2-dimethyl-3-(8-methyl-3-(trifluoromethyl)-[1,2,4[triazolo[4,3-a]pyridine-7-yl)propanoic Acid], the dissociation constant Kd in test [1] is 8560 nM. This compound also registered an EC50 in test [2] of 19400 nM.

Take `Cc1ccc([C@H](c2ccn3c(C(F)(F)F)nnc3c2C)C(C)(C)C(=O)O)cc1CN1CC2(CCOCC2)Oc2nc(CCC(=O)NCCO)ccc2S1(=O)=O` (single isomer, unassigned) [Example 128, (*R)-3-(3-((7′-(3-((2-Hydroxyethyl)amino)-3-oxopropyl)-1′,1′-dioxido-2,3,5,6-tetrahydrospiro[pyran-4,4′-pyrido[2,3-b][1,4,5]oxathiazepin]-2′(3′H)-yl)methyl)-4-methylphenyl)-2,2-dimethyl-3-(8-methyl-3-(trifluoromethyl)-[1,2,4]triazolo[4,3-a]pyridine-7-yl)propanoic Acid]: the Kd in test [1] is under 1 nM. Also, a half-maximal response in test [2] (EC50) required 308 nM.

As for `Cc1ccc(C(CC(=O)O)c2ccn3c(C(F)(F)F)nnc3c2C)cc1CN1CC2(COC2)Oc2ccccc2S1(=O)=O` (centres unmarked) [Example 287, 3-(3-((1,1-Dioxidospiro[benzo[b][1,4,5]oxathiazepine-4,3′-oxetan]-2(3H)-yl)methyl)-4-methylphenyl)-3-(8-methyl-3-(trifluoromethyl)-[1,2,4]triazolo[4,3-a]pyridin-7-yl)propanoic Acid], the Kd in test [1] was under 1 nM. The 50% effective concentration (EC50) in test [2] stood at 28.1 nM.

Regarding `Cc1ccc([C@@H](CC(=O)O)c2ccn3c(C(F)F)nnc3c2C)cc1CN1C[C@@H]2CCCCN2c2ncccc2S1(=O)=O` (single isomer, unassigned) [Example 448, (*R)-3-(3-(Difluoromethyl)-8-methyl-[1,2,4]triazolo[4,3-a]pyridin-7-yl)-3-(3-(((*S)-5,5-dioxido-7,7a,8,9,10,11-hexahydro-6H-dipyrido[2,1-d:2′,3′-f][1,2,5]thiadiazepin-6-yl)methyl)-4-methylphenyl)propanoic Acid], in test [1], the dissociation constant (Kd) is under 1 nM. In test [2], this compound had a concentration for a half-maximal effect (EC50) of 218 nM.

As for `Cc1cnc2c(c1)S(=O)(=O)N(Cc1nc([C@@H](c3ccn4c(C(F)F)nnc4c3C)C(C)(C)C(=O)O)ccc1C)CC1(COC1)O2` (single isomer, unassigned) [Example 627, (*S)-3-(3-(Difluoromethyl)-8-methyl-[1,2,4]triazolo[4,3-a]pyridin-7-yl)-2,2-dimethyl-3-(5-methyl-6-((8′-methyl-1′,1′-dioxidospiro[oxetane-3,4′-pyrido[2,3-b][1,4,5]oxathiazepin]-2′(3′H)-yl)methyl)pyridin-2-yl)propanoic Acid], in test [1], the dissociation constant (Kd) was under 1 nM. Moreover, the EC50 in test [2] is 1.35 nM.

Regarding `Cc1cnc2c(c1)S(=O)(=O)N(Cc1cc([C@H](c3ccc4c(nnn4C4CC4)c3C)C(C)(C)C(=O)O)ccc1C)CC1(CNC1)O2` (single isomer, unassigned) [Example 645, (*R)-3-(1-Cyclopropyl-4-methyl-1H-benzo[d][1,2,3]triazol-5-yl)-2,2-dimethyl-3-(4-methyl-3-((8′-methyl-1′,1′-dioxidospiro[azetidine-3,4′-pyrido[2,3-b][1,4,5]oxathiazepin]-2′(3′H)-yl)methyl)phenyl)propanoic Acid], in test [1], the Kd is under 1 nM. Also, the EC50 in test [2] turned out to be 1.5 nM.

Regarding `CC[C@@H]1CN(Cc2cc([C@H](CC(=O)O)c3ccn4c(C(F)(F)F)nnc4c3C)ccc2C)S(=O)(=O)c2cccnc2O1` (single isomer, unassigned) [Example 189, (*S)-3-(3-(((R)-4-Ethyl-1,1-dioxido-3,4-dihydro-2H-pyrido[2,3-b][1,4,5]oxathiazepin-2-yl)methyl)-4-methylphenyl)-3-(8-methyl-3-(trifluoromethyl)-[1,2,4]triazolo[4,3-a]pyridin-7-yl)propanoic Acid], in test [1], the dissociation constant Kd was under 1 nM. Further, the concentration giving a half-maximal response (EC50) in test [2] was 11 nM.

In the case of `Cc1ccc([C@H](c2ccn3c(C(F)(F)F)nnc3c2C)C(C)(C)C(=O)O)cc1CN1CC2(CCOCC2)Oc2nc(N[C@@H](C)CN3CCCC3)c(C)cc2S1(=O)=O` (single isomer, unassigned) [Example 367, (*R)-2,2-Dimethyl-3-(4-methyl-3-((8′-methyl-1′,1′-dioxido-7′-(((S)-1-(pyrrolidine-1-yl)propan-2-yl)amino)-2,3,5,6-tetrahydrospiro[pyran-4,4′-pyrido[2,3-b][1,4,5]oxathiazepin]-2′(3′H)-yl)methyl)phenyl)-3-(8-methyl-3-(trifluoromethyl)-[1,2,4]triazolo[4,3-a]pyridine-7-yl)propanoic Acid], the dissociation constant Kd in test [1] was under 1 nM. This compound returned an EC50 in test [2] of 78.6 nM.

`Cc1cnc2c(c1)S(=O)(=O)N(Cc1cc([C@H](c3ccn4c(C5CC5)nnc4c3C)C(C)(C)C(=O)O)ccc1C)CC1(COC1)O2` (single isomer, unassigned) [Example 619, (*R)-3-(3-Cyclopropyl-8-methyl-[1,2,4]triazolo[4,3-a]pyridin-7-yl)-2,2-dimethyl-3-(4-methyl-3-((8′-methyl-1′,1′-dioxidospiro[oxetane-3,4′-pyrido[2,3-b][1,4,5]oxathiazepin]-2′(3′H)-yl)methyl)phenyl)propanoic Acid]: the dissociation constant (Kd) in test [1] was under 1 nM. This compound also had an EC50 in test [2] of 4.48 nM.

With `Cc1cnc2c(c1)S(=O)(=O)N(Cc1cc([C@@H](c3ccc4c(nnn4C4CC4)c3C)C(C)(C)C(=O)O)ccc1C)CC1(CCNCC1)O2` (single isomer, unassigned) [Example 650, (*S)-3-(1-Cyclopropyl-4-methyl-1H-benzo[d][1,2,3]triazol-5-yl)-2,2-dimethyl-3-(4-methyl-3-((8′-methyl-1′,1′-dioxidospiro[piperidine-4,4′-pyrido[2,3-b][1,4,5]oxathiazepin]-2′(3′H)-yl)methyl)phenyl)propanoic Acid], the Kd in test [1] is under 1 nM. In test [2], the concentration for a half-maximal effect (EC50) amounted to 4.36 nM.

For `Cc1cnc2c(c1)S(=O)(=O)N(Cc1cc([C@H](c3ccc4c(nnn4C4CC4)c3C)C(C)(C)C(=O)O)cnc1C)CC1(COC1)O2` (single isomer, unassigned) [Example 624, (*S)-3-(1-Cyclopropyl-4-methyl-1H-benzo[d][1,2,3]triazol-5-yl)-2,2-dimethyl-3-(6-methyl-5-((8′-methyl-1′,1′-dioxidospiro[oxetane-3,4′-pyrido[2,3-b][1,4,5]]oxathiazepin]-2′(3′H)-yl)methyl)pyridine-3-yl)propanoic Acid], in test [1], the Kd was found to be 18400 nM. The EC50 in test [2] was found to be 3660 nM.
